Target: T1, ENT1 (Homo sapiens, UniProt Q99808)
T1 construct: expressed in transfected cells; host or cells: Xenopus oocytes injected with ENT1 cRNA
T1 sequence (Q99808 1-456): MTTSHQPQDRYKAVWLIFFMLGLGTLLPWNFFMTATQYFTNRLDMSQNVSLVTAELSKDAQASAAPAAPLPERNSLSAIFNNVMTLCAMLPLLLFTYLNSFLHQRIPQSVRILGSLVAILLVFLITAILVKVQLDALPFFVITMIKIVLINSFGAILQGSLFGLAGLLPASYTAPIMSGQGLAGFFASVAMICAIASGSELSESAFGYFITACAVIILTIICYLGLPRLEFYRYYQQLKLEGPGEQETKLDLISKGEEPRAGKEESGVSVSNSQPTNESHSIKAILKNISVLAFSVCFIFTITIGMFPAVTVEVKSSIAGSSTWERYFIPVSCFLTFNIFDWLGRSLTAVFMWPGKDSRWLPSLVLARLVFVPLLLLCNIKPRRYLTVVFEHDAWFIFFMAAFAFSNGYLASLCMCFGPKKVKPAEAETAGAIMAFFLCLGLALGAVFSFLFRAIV
Experiment: Uptake of radiolabel into Xenopus oocytes expressing ENT1
Type: cell-based
Conditions: Xenopus oocytes injected with ENT1 cRNA, 10 minutes, scintillation counting
Method: To assess transport function of a specific transporter protein, it can be desirable to clone the cDNA and express the protein in cells that have low endogenous transport activity. Human ENT1 was cloned by PCR, fully sequenced, and subcloned into plasmids that can be used for expression in mammalian cells or Xenopus oocytes. […] For expression in Xenopus oocytes, in vitro ENT1 cRNA was prepared and injected into defoliculated oocytes.
Oocytes expressing ENT1 or control oocytes not expressing ENT1 were incubated in an oocyte ringers (ND96) buffer (90 mM NaCl, 10 mM HemiNa HEPES, 2 mM KCl, 1 mM MgCl, 1.8 mM CaCl2) containing 0.5% bovine serum albumin and 3H urindine (10^6 CPM/ml) for 10 minutes. Oocytes were washed and uptake of radiolabel quantified by scintillation counting.

## Nc1ccn([C@@H]2O[C@H](CO)[C@@H](O)C2(F)F)c(=O)n1 [^3H-gemcitabine, gemcitabine]
  uptake into oocytes expressing ENT1 versus noninjected controls: higher levels

Reference: patent US20060003362A1, “ENT1 transporters expressed in cancer cells” (Xenoport, Inc., priority 2004, published 2006)
